This note sets out measurements from patent publication US20080275063A1, “Inhibitors of protein kinases” (priority 2007, published 2008).

The subject of series [1] is Tau protein at Serin396 in differentiated SH-SY5Y cells. Nature of the series: In vitro SH-SY5Y assay, tau phosphorylation. Format: cell-based, human. The settings on record: RA- and BDNF-differentiated SH-SY5Y cells, 90-120 min incubation, Western Blot or ELISA. The source says: Abnormal tau phosphorylation and deregulated CDK5/p35 activity are closely linked to each other and represent hallmarks of neurodegenerative diseases such as Alzheimer's disease, Parkinson's disease or Amyotrophic lateral sclerosis. The human neuroblastoma cell line SH-SY5Y can be utilized as an in vitro model to investigate CDK5 function and the efficacy of CDK5 specific inhibitors. SH-SY5Y cells express tau protein which harbors various phosphorylation sites known to be phosphorylated by several kinases including CDK5. SH-SY5Y cells can be differentiated into neuron-like cells by exposure to 10 μM all trans-retinoic acid for 3 days and subsequent exposure to 50 ng/ml human recombinant brain-derived neurotrophic factor for 3-5 days, thereby upregulating neuronal markers, including tau protein. In addition CDK5 and p35 protein levels were increased during differentiation. […]
Concentrations of total tau, pS396 tau and pT231 tau within the cell culture lysates are measured by using commercial ELISA Kits (BioSource: human total tau: KHB0042; human pS396 tau: KHB7031; human pT231 tau: KHB7051) according to the manufacturers instructions or by using Western Blots probing with total and phospho-specific antibodies (antibodies: total tau: Santa Cruz, sc-21796; pS396 tau: Santa Cruz, sc-12414; pT231 tau, AT180: Pierce Endogen, MN1040; pS202 tau: AT8: Pierce Endogen, MN1020). […]
In general terms: In western blotting, separated proteins are transferred to a membrane and probed.

As to `COCCCNS(=O)(=O)Cc1cccc(Nc2cc(-c3ccccc3OC)ncn2)c1` [Reference compound 3, C-{3-[6-(2-methoxy-phenyl)-pyrimidin-4-ylamino]-phenyl}-N-(3-methoxy-propyl)-methanesulfonamide], the melting point (commonly the temperature of the solid-liquid transition) lay within 149.2 to 150.8 °C.
On the same count and under the same terms, the same measure for `CCOc1ccccc1-c1cc(Nc2ccc(CS(N)(=O)=O)cc2)ncn1` [Compound 6, {4-[6-(2-Ethoxy-phenyl)-pyrimidin-4-ylamino]-phenyl}-methanesulfonamide]: 213.5 to 215.1 °C.
Take `NS(=O)(=O)Cc1ccc(Nc2cc(-c3ccccc3OCc3ccccc3)ncn2)cc1` [Compound 8, {4-[6-(2-Benzyloxy-phenyl)-pyrimidin-4-ylamino]-phenyl}-methanesulfonamide]: in series [1], the “effect on Tau phosphorylation at Serin396” value is “significant inhibitory effect”.
